Source: US5273989A, “3,5-disubstituted 2-isoxazolines and isoxazoles, agents containing them and their use” (Hoechst Aktiengesellschaft, priority 1990, dated 1993)
Where a name gives a salt, the structure may show the parent alone. Read-outs that look alike come from different tables or passages of the source.

Legend:
[1] = system: NMDA receptor-channel complex; assay: Inhibition of 3H-MK-801 binding to membranes from rat brain; conditions: preparation concentration 50 μM; 3H-MK801 1 nM
Procedure: 3. Inhibition of ^3 H-MK-801 binding to membranes from rat brain
Test principle: MK-801 is a non-competitive antagonist which binds to ion channels coupled to NMDA receptors (Yoneda et al., Brain Res. 499 (1989), 305). Membranes from whole brain containing preparation and ^3 H-MK-801 are incubated in the test. The binding of ^3 H-MK-801 or its displacement by preparations (antagonists) is determined by radiochemical methods.
Experimental protocol: The binding experiments are carried out by the method of Reynolds et al. (Proc. Natl. Acad. Sci. USA, 84 (1987), 7744). Membrane preparation is first carried out according to Reynolds. Test samples are then pipetted, buffer and test preparation being initially introduced, then preincubated with protein for 2 minutes, and initiated using ^3 H-MK801. The membranes are thawed at 37° C., incubated at 37° C. for 10 minutes and homogenized for 15 seconds at half the maximum speed by means of a Polytron, then used in the cool state again. The incubation medium contains: pH 7.4 Hepes buffer 20 mM, preparations in three concentrations 5 μM, 10 μM and 50 μM, membranes 500 μg/ml of test solution, ^3 H-MK801 1 nM. Incubation is carried out at room temperature (23° C.) for 60 minutes and is then stopped by filtration. For this purpose, glass fiber paper No. 32 from Schleicher and Schull, which had been soaked in 0.03% polyethyleneimine for 30 minutes on the day before the experiment are counted in 4 ml of "Packard 199™" Scintillation fluid (Frankfurt). Tritium is determined by liquid scintillation counting using a Packard 1500.
Calculation of the results: The calculation of the binding in femtomol/mg of protein over a period of 60 min. was carried out using a small calculator (HP-97). If a substance antagonizes the binding, the value decreases. Substance activities are indicated in Table 5 as percentages, i.e. in % binding compared to the control. The activity of the comparison preparation CPP (3-(+)-2-carboxypiperazin-4-ylpropyl-1-phosphonic acid) at 5 μM, 10 μM and 50 μM is always determined to check the test.

[2] = system: high affinity 3H-D-aspartate absorption, synaptic vesicles (synaptosomes) from rat cortex; assay: "High affinity" absorption of 3H-aspartate in a vesicle preparation from rat brain; assay type: biochemical; conditions: preparation concentration 100 μM; relative to control values (100%)
Procedure: 1. "High affinity" absorption of ^3 H-aspartate in a vesicle preparation from rat brain.
Test principle: Fresh synaptic vesicles (synaptosomes) from rat cortex are incubated with buffer solution and ^3 H-D-aspartate and ^3 H-D-aspartate in the vesicles is measured. Preparations which in comparison to control synaptosomes increase the high affinity ^3 H-D-aspartate absorption and those which prevent the loss of ^3 H-D-aspartate by reliberation are regarded as particularly interesting.
Experimental protocol: The experiments for ^3 H-D-aspartate absorption were carried out by the method of Anand et al. (Biochem. Pharmacol., 35 (1986), 1055-1057). The synaptic vesicles were dissected out of cerebral cortex from male Sprague-Dawley rats. The preparations were tested at four concentrations as double samples in parallel with control samples containing buffer. The incubation medium (pH 7.4) contains: 1.2 mM KH2 PO4, 5 mM KCl, 5 mM pyruvate, 1.2 mM glucose, 1.2 mM MgCl2, 114 mM NaCl, 25 mM NaHCO3. For the non-specific ^3 H-D-aspartate absorption, NaCl was replaced by 114 mM choline chloride and NaHCO3 by 25 mM KHCO3. An aliquot of the vesicle suspension (about 25 μg/ml of test solution) was added to the test sample which was temperature controlled at 37° C. and aerated with Carbogen (5% CO2, 95% O2) and preincubated for 2 minutes. The three minutes incubation for the amino acid absorption was started by addition of 50 μl of ^3 H-D-aspartate (specific activity 25 Ci/mmol, 10 pmol/ml of test solution). The vesicles were separated from the incubation medium by filtration and additional washing of the adhering labeled amino acids using a Titertek cell harvester (Flow Laboratories, Meckenheim). The ^3 H-D-aspartate absorption was measured by means of a liquid scintillation counter (Canberra-Packard, Model 1500, Frankfurt).
The preparation activity is indicated in percent of the specific ^3 H-D-aspartate absorption, relative to control values (100%), in Table 3. Adenosine triphosphate (ATP) was used for comparison as the standard substance (see Table 3) and at 1 mM caused a 35% increase in the ^3 H-D-aspartate absorption.

[3] = system: NMDA-stimulated 3H-acetylcholine release, striatum sections; assay: Inhibition of NMDA-stimulated 3H-acetylcholine release from striatum sections of the rat brain; assay type: cell-based; conditions: preparation concentration 10 μM, 25 μmol/l NMDA stimulus, relative to control S2/S1, read-out: Inhibition of 3H-acetylcholine release from striatum sections, Inhibition (%)
Procedure: 2. Inhibition of ^3 H-acetylcholine release from striatum sections of the rat brain
Test principle: For the test, fresh striatum sections from rat brain were rinsed with buffer solution in a special chamber and the release of the tritium-labeled acetylcholine was measured after stimulation with NMDA. Preparations having NMDA-antagonist action inhibit acetylcholine release.
Experimental protocol: The superfusion experiments were carried out by the method of Wichman et al. (Naunyn-Schmied. Arch. Pharmacol., 338 (1988), 623-631). Rat brain sections, 0.5 mm thick, were preincubated for 30 min in 2 ml of incubation medium which contains 0.1 μmol/l of ^3 H-choline having a specific activity of 80 Ci/mmol. In each of 6 superfusion chambers, a section was transferred and superfused for 90 min at a rate of 1.5 ml/min. 2 min fraction of the superfusate were continuously collected. Each section was superfused twice with 25 μmol/l of NMDA of two minutes each time in order to stimulate the release of acetylcholine. The first stimulus (S1) takes place between the 54th and the 56th minute and the 2nd stimulus (S2) between the 76th and 78th minute. The incubation medium contained, in mmol/l: NaCl 118, KCl 4.8, CaCl2 1.2, MgSO4 1.2, NaHCO3 25, KH2 PO4 1.2 and glucose 10. The medium was saturated with Carbogen at 37° C. The pH was adjusted to 7.4 NMDA and the novel preparations to be tested were dissolved in superfusion medium. The superfusion was carried out using Mg^2+ -free medium. Tritium from the dissolved sections and from the superfusate was determined by liquid scintillation counting using a Packard® 1900 CA (Frankfurt) at a 50% efficiency.
Calculation of the Results
Basal release and NMDA-stimulated release for S1 and S2 were expressed in %/min of each fraction (Limberger et al, Naunyn Schmied. Arch. Pharmacol. 339 (1988), 53-61).
The value for the stimulated release S2 /S1 was calculated for the control as 0.69±0.09. The value decreases if a substance, such as, for example, the NMDA receptor antagonist CPP (3-(+)-2-carboxypiperazin-4-ylpropyl-1-phosphonic acid) known from the literature inhibited the NMDA-stimulated release. The inhibition of the stimulated release by preparations was calculated in percent, relative to the control value, and is indicated in Table 4.

[4] = system: CA1 pyramidal cells of the hippocampus after forebrain ischemia; assay: Neuroprotection after forebrain ischemia in the gerbil; conditions: 50 mg/kg p.o., 15 minutes before ischemia
Procedure: A 5-minutes' ischemia of the forebrain with subsequent recirculation is produced in 20 male Mongolian gerbils under halothane anesthesia by bilateral closure of the corotid artery by means of aneurysm clips. 7 days later, the animals are decapitated under halothane anesthesia, the brains are fixed by immersion in Carnoy solution and the extent of neuron damage in the CA1 region of the hippocampus is determined "blind" with the aid of a 5-stage histopathological score. The test substance is administered intraperitoneally or orally 15 minutes before ischemia to each group of 10 gerbils. One ischemic control group, also of 10 animals, is treated with the respective solvents per test substance.

[5] = Toxicity (LD50) in the mouse; conditions: in vivo, iv
Text: As the examples investigated show considerable differences in toxicity compared to the standard substances, the LD50 values are also listed in Table 6,

NMDA-induced cramps = assay: Inhibition of NMDA-induced cramps in the mouse; assay type: in vivo; conditions: po, 1 h
Procedure: 4. Inhibition of NMDA-induced-cramps in the mouse
The examples listed below show neuroprotective activity in that they antagonize the cramps induced by NMDA (N-methyl-(D)-aspartate). To this end, intravenous injections of 20-30 mg/kg of NMDA are carried out on a male NMRI (Naval Medical Research Institute) mice of 22-24 g body weight, which leads to stereotypes, clonic cramps and in the majority of cases to mortality. In order to investigate an NMDA-antagonist activity of the test substances, they are administered orally one hour before NMDA. The animals are then observed for the abovementioned symptoms for up to 60 min. The number of animals with clonic cramps and the incidence of mortality, expressed in percent change compared to the control group, is regarded as the evaluation criterion.

SMILES	Inhibition of 3H-MK-801 binding to the NMDA receptor-channel complex, inhibition (%) [1]	Stimulation of the 3H-D-aspartate absorption, Stimulation (%) [2]	inhibition at 10 µM [3]	Cell necroses (% change) ([4]; histopathological score CA1, treated versus control group)	Behavior score (% change) ([4]; treated versus control group)	LD50 [5]	inhibition in vivo at 50 mg/kg (NMDA-induced cramps; 50 mg/kg p.o., one hour before NMDA i.v., change compared to control group, read-out: Inhibition of convulsions)	inhibition in vivo at 50 mg/kg (NMDA-induced cramps; read-out: Inhibition of mortality)
CC(C)[C@H]1CC[C@H](C)C[C@@H]1OC(=O)CCc1cc(C[N+](C)(C)C)on1 [Example 19, (+)-Menthyl 5-trimethylammoniomethylisoxazole-3-propionate iodide]	16%	25%	16%	-25 % change	0 % change	–	–	–
CC(C)[C@@H]1CC[C@@H](C)C[C@H]1OC(=O)CCc1cc(CNC(=O)[C@@H](N)Cc2ccccc2)on1 [Example 21, (-)-Menthyl 5-(L-phenylalanylamino)methylisoxazole-3-propionatehydrochloride]	45%	–	20%	–	–	25 to 50 mg/kg	30%	40%
